ChEMBL document CHEMBL1201862, “PubChem BioAssay data set” (2004)
The source made the active and inactive calls.

Tests used:
[1] = cells; conditions: HEK293
[2] = Luminescence Cell-Based Dose Response HTS to Identify Inhibitors of 5'UTR Stem-Loop Driven Prion Protein mRNA Translation in H4 Neuroglioblastoma Cells. [Related pubchem assays: 1827 (Project Summary), 1813 (Primary HTS)]; format: functional
[3] = HepG2 cell cytotoxicity, dose response, cytotoxicity control, ATP luminescence, cherry-pick, set 6 (AID 1053125); format: functional, cell-based
[4] = inhibitors of intracellular T. cruzi replication, confirmation, NIH3T3 host cells, beta-gal luminescence (AID 2044); format: functional, cell-based;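 also: intracellular parasites grown in NIH/3T3 mouse fibroblasts as host cells; luminescent beta-galactosidase reporter signal from transgenic T. cruzi replicating inside host cells; inhibitors lower the luminescence signal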
[5] = target: T1, Serine/threonine-protein phosphatase (Candida dubliniensis (strain CD36 / CBS 7987 / NCPF 3949 / NRRLY-17841) (Yeast), UniProt B9W6M3); assay: calcineurin pathway inhibitors in yeast reporter, dose response, S. cerevisiae, CDRE-lacZ, luminescence, secondary (AID 2388); format: functional, cell-based;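 also: yeast reporter cells carrying a calcineurin-responsive lacZ construct stimulated with calcium chloride; luminescent beta-galactosidase reporter signal in whole cells rather than isolated phosphatase activity; potency for inhibition where a drop in reporter signal means calcineurin blockade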
T1 sequence (B9W6M3 whole entry): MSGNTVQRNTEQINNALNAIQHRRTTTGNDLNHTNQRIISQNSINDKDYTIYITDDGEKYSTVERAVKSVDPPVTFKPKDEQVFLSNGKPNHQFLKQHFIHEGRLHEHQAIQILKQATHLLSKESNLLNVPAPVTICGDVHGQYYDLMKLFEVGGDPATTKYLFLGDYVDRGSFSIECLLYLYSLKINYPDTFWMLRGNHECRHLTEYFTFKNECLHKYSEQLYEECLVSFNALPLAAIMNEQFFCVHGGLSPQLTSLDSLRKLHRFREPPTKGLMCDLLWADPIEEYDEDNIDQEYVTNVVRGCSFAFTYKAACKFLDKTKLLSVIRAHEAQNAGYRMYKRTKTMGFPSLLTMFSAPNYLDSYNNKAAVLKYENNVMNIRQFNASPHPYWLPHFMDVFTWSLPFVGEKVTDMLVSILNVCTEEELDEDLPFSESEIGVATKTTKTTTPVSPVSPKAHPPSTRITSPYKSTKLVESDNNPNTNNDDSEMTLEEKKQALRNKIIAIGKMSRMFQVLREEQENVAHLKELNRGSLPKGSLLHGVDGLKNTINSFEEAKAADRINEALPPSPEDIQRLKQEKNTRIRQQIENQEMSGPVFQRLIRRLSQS

[6] = cytotoxicity toward NIH3T3 fibroblasts, dose response, counter-screen, cell-based, ATP luminescence, mouse fibroblasts (AID 2010); format: functional;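 also: cells exposed to compound for about 90 hours before reading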
[7] = inhibitors of firefly luciferase expression or activity, dose response, H4 neuroglioma cells, luminescence (AID 1990); format: functional, cell-based
[8] = cells; conditions: A549
[9] = target: T2, DNA repair protein RAD52 homolog (Homo sapiens, UniProt P43351); format: functional, biochemical
T2 sequence (P43351 whole entry): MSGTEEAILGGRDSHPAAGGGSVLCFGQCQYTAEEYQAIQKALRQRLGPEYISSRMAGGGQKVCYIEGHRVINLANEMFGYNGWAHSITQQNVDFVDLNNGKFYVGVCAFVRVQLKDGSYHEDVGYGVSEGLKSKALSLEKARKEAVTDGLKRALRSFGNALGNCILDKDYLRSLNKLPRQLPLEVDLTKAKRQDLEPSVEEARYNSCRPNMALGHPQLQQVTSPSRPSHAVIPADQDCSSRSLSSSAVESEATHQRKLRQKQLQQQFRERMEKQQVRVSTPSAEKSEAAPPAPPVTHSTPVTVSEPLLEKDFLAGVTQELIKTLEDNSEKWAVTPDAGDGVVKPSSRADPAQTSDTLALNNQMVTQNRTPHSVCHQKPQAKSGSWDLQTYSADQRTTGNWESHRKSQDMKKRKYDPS

[10] = NIH-3T3 fibroblast cytotoxicity, dose response, cytotoxicity control, cell-based, fluorescence, Alamar Blue, secondary assay (AID 2327); format: functional;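 also: NIH-3T3 mouse fibroblasts cultured with fluconazole at 8 µg/mL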
[11] = inhibitors of SNCA 5'UTR-driven reporter translation, confirmation, H4 neuroglioma cells, luminescence (AID 1988); format: functional, cell-based
[12] = cells
[13] = target: T3, Neuropeptide Y receptor type 2 (Homo sapiens, UniProt P49146); assay: NPY-Y2 antagonist potency, selectivity check, dose response, counter-screen for NPY-Y1 antagonist project, cell-based (AID 1278); format: functional
T3 sequence (P49146 whole entry): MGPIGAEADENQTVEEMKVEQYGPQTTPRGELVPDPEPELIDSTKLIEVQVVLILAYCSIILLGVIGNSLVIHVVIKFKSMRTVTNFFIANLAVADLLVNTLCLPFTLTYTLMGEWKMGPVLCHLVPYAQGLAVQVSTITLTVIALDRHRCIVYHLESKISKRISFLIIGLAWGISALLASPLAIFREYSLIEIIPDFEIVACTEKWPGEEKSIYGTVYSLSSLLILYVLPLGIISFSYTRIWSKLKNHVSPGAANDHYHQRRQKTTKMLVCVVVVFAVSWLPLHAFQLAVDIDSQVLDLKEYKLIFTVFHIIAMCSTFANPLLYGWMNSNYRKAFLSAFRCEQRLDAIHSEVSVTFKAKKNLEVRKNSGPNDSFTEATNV

[14] = target: ATP-dependent molecular chaperone HSP82 (Candida albicans (strain WO-1) (Yeast), UniProt C4YTQ8); assay: loss of DOC-induced GRE-beta-galactosidase reporter signal, dose response, Hsp90 inhibitor project, S. cerevisiae, luminescence (AID 2400); format: functional, cell-based;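 also: beta-galactosidase luminescence from glucocorticoid response element reporter as proxy for Hsp90 function; inhibitor potency where signal loss means Hsp90 inhibition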
Sequence of ATP-dependent molecular chaperone HSP82 (C4YTQ8 whole entry): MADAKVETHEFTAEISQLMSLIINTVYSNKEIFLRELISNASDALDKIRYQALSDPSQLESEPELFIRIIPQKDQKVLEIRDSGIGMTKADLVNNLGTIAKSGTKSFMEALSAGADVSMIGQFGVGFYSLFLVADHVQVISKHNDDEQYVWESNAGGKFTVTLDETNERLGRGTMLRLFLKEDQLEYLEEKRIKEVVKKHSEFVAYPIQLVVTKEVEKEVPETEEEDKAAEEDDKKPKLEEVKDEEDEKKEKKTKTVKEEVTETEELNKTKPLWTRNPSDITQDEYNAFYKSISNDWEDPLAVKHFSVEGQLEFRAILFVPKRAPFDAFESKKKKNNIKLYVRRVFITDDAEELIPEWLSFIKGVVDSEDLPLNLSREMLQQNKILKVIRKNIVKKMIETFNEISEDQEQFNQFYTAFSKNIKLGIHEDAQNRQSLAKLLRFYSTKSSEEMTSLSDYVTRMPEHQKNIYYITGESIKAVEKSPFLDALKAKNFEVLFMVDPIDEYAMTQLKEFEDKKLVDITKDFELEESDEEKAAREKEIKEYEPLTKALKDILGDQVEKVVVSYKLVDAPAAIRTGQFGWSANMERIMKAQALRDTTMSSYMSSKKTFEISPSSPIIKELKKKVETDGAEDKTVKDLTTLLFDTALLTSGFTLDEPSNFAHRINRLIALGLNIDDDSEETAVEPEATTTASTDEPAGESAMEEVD

[15] = cells; format: functional, cell-based; conditions: HEK-CNG
[16] = target: T4, Neuropeptide Y receptor type 1 (Homo sapiens, UniProt P25929); assay: NPY-Y1 receptor antagonist potency, dose response, cell-based (AID 1277); format: functional
T4 sequence (P25929 whole entry): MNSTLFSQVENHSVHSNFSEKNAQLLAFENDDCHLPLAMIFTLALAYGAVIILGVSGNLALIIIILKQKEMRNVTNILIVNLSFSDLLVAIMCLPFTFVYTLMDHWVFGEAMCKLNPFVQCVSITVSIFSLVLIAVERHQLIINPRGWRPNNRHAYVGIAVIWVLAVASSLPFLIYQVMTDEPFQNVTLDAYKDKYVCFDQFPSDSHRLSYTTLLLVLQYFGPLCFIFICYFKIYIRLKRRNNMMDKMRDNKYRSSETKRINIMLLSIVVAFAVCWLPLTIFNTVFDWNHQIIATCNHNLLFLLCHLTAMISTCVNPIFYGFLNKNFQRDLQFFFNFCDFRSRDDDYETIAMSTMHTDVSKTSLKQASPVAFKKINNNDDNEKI

[17] = C. albicans growth with fluconazole, confirmation, fluorescence, retest (AID 2467); format: functional, cell-based
[18] = target: T5, Galanin receptor type 3 (Homo sapiens, UniProt O60755); assay: Fluorescence-based cell-based primary high throughput dose response assay to identify antagonists of the Galanin Receptor 3 (GalR3).; format: functional
T5 sequence (O60755 whole entry): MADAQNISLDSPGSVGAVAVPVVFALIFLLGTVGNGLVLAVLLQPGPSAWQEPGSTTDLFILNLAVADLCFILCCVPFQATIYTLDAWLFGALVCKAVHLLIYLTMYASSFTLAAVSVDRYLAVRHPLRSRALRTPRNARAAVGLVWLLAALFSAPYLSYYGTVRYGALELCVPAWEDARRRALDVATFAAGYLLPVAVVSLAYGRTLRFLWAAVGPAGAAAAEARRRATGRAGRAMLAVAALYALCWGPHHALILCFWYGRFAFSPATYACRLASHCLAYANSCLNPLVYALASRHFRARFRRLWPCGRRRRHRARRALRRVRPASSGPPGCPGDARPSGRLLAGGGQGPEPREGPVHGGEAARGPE

CC[n+]1c(/C=C2\SC(c3ccccc3C)=CN2C)sc2ccccc21
active: AC50 [1] 2.77 µM | EC50 [2] 8.01 µM | AC50 [3] 2.18 µM | EC50 [4] < 0.1 µM | EC50 [6] 7.48 µM | EC50 [7] 8.74 µM | AC50 [8] 2.44 µM | AC50 [9] 8.2 µM | EC50 [11] 0.619 µM | EC50 [12] 0.021 µM | IC50 [16] 6.98 µM | EC50 [17] 0.212 µM | IC50 [18] 0.404 µM
29.6 µM (not active): IC50 [13]
inactive: EC50 [5] > 180 µM | EC50 [10] > 150 µM | EC50 [14] > 150 µM | EC50 [15] > 29.9 µM
